Molecules are shown by their SMILES. Like-named read-outs stand apart in the source and are kept apart here.

This note sets out measurements from US10130616B2, “Securinine and norsecurinine analogue compounds for the treatment of myeloid disorders” (Case Western Reserve University, priority 2013, dated 2018).

This experiment concerns HL-60 leukemic cells. In words: Nitroblue Tetrazolium (NBT) reduction assay, differentiation of HL-60 leukemic cells. The format is cell-based, human. An excerpt:
In an aspect of the present disclosure, the compounds of the disclosure can be identified using a novel high-throughput screen that is biased to identify agents that have both a high potency and low toxicity in a myeloid disorder disease model, such as an animal or cell model. In some embodiments, the high-throughput screen measures the differentiation of HL-60 leukemic cells using a quantitative nitroblue tetrazolium (NBT) reduction assay. Screening HL-60 cells, human promyelocytic cells, is advantageous as they have been used extensively as a cell line to study myeloid differentiation. Though promyelocytic cells, HL-60 cells were derived from a patient with acute myeloblastic leukemia with maturation, FAB-M2.
This technique has also been widely exploited in HL-60 cells to analyze myelomonocytic differentiation.
The NBT screen works due to changes in the oxidoreductases during differentiation that lead to increases in rates of NBT reduction. NBT is reduced due to the production of superoxide that is catalyzed by an NADPH oxidase. […] NBT is reduced by superoxide from a soluble yellow compound to insoluble blue formazan granules whose formation can be monitored spectrophotometrically at 560 nm as the unreduced dye has minimal absorbance at this wavelength. A quantitative NBT reduction assay is ideal for this type of screen as it is simple, sensitive, quantitative, requires minimal cells, has been proven to have low well to well variability, and the amount of reduced NBT is proportional to the number of cells reducing the dye as well as the amount reduced by each cell.
To discover novel AML differentiation-inducing compounds a rapid high-throughput screen (HTS) was developed and optimized. The screen was designed to be biased to identify compounds that, unlike the majority of known differentiation-inducing agents, have both high potency and low toxicity. The screen measured the differentiation of HL-60 leukemic cells using a quantitative Nitroblue Tetrazolium (NBT) reduction assay, a test that is used extensively as a measure of functional myelomonocytic differentiation. The basis for the screen is unreduced NBT exists as a yellow soluble dye. Differentiated leukemic cells are capable of producing a respiratory burst that can reduce NBT into a blue insoluble compound that can be measured spectrophotometrically. This forward chemical genetics approach allowed the discovery of novel compounds that can act on targets not previously known to be “drugable.” As only live cells can reduce NBT, the screen is biased in identifying relatively nontoxic compounds.
To perform the screen, duplicate plates of HL-60 cells were cultured at a density of 5×10^4 cells/mL with 10 μM of each compound in 96 well plates for 5 days. To determine the relative capability for a compound to induce differentiation compared to known potent inducers, each plate destined for the NBT reduction assay included wells with 0.1% DMSO (vehicle control) and 1 μM ATRA. This approach eliminates any slight day to day variation in NBT reduction values and allows the discovery of compounds with similar or greater efficacy to ATRA. Differentiation was determined in the 96 well plates by incubating the cells with 1 mg/mL of NBT and 200 ng/mL of PMA as the stimulant for the respiratory burst for 35 minutes at 37° C. The reaction was then stopped with HCl and the formazan solubilized with DMSO. Finally, the reaction mixture was read spectrophotometrically at 560 nm in a plate reader.
The securinine and norsecurinine analogues were tested and evaluated on their abilities to affect differentiation and growth of HL-60 cells (Table 1).

Setting [1] is: Homo sapiens, HL-60 cells, value bracketed between tested concentrations, read-out: HL-60, Dif50.
[2] abbreviates: Homo sapiens, HL-60, read-out: HL-60, Dif50.
[3] abbreviates: HL-60 cells, value bracketed between tested concentrations, read-out: HL-60, Dif50.

In the case of `NCCSC1CC2=CC(=O)O[C@@]23C[C@@H]1N1CCCC[C@@H]13` (stereo partly drawn) [Compound 77], under setting [1], the EC50 fell in the range of 10 to 15 µM. Consider `O=C(CCCC[C@@H]1SC[C@@H]2NC(=O)N[C@@H]21)NCCS[C@H]1CC2=CC(=O)O[C@@]23C[C@@H]1N1CCCC[C@@H]13` [Compound 78], for which the EC50 under setting [1] lay within 10 to 15 µM. Still for that read-out and setting: the figure for `O=C1C=C2CC(NCC3CC3)[C@@H]3C[C@@]2(O1)[C@H]1CCCCN31` (stereo partly drawn) [Compound 79] is 10 to 15 µM; for `O=C1C=C2CC(NC3CC3)[C@@H]3C[C@@]2(O1)[C@H]1CCCCN31` (stereo partly drawn) [Compound 80] it is 20 to 30 µM; for `O=C1C=C2CC(NC3CCCC3)[C@@H]3C[C@@]2(O1)[C@H]1CCCCN31` (stereo partly drawn) [Compound 81] it is 10 to 15 µM. Consider `O=C1C=C2CC(NC3CCCCC3)[C@@H]3C[C@@]2(O1)[C@H]1CCCCN31` (stereo partly drawn) [Compound 82], for which the EC50 under setting [1] was in the range of 15 to 20 µM.

With `O=C1C=C2CC(NC3CCCCCC3)[C@@H]3C[C@@]2(O1)[C@H]1CCCCN31` (stereo partly drawn) [Compound 83], the EC50 under setting [1] is over 30 µM.

On to `O=C1C=C2CC(NC3CCCCCCC3)[C@@H]3C[C@@]2(O1)[C@H]1CCCCN31` (stereo partly drawn) [Compound 84], for which the EC50 under setting [1] was over 30 µM.

For `O=C1C=C2CC(NC3CC(O)C3)[C@@H]3C[C@@]2(O1)[C@H]1CCCCN31` (stereo partly drawn) [Compound 85], under setting [1], the EC50 lay in the range of 10 to 15 µM. As to `COc1ccc(CN[C@H]2CC3=CC(=O)O[C@@]34C[C@@H]2N2CCCC[C@@H]24)cc1` [Compound 86], the EC50 under setting [1] was 15 to 20 µM.

As for `O=C1C=C2C[C@H](S(=O)(=O)c3ccccc3)[C@@H]3C[C@@]2(O1)[C@H]1CCCCN31` [Compound 88], the EC50 under setting [1] is 5 to 7.5 µM.

As to `O=C1C=C2CC(n3cnc4ccccc43)[C@@H]3C[C@@]2(O1)[C@H]1CCCCN31` (stereo partly drawn) [Compound 91], the EC50 under setting [1] is over 30 µM. Take `O=C1C=C2CC(n3nnc4ccccc43)[C@@H]3C[C@@]2(O1)[C@H]1CCCCN31` (stereo partly drawn) [Compound 92]: the EC50 under setting [1] lay within 20 to 30 µM. As to `O=C1C=C2CC(SCc3ccccc3)[C@@H]3C[C@@]2(O1)[C@H]1CCCCN31` (stereo partly drawn) [Compound 93], under setting [2], the EC50 is over 30 µM. With `O=C1C=C2CC(SCc3ccccc3O)[C@@H]3C[C@@]2(O1)[C@H]1CCCCN31` (stereo partly drawn) [Compound 94], the EC50 under setting [2] lay in the range of 15 to 20 µM.

Regarding `CC(C)(C)OC(=O)NCCSC1CC2=CC(=O)O[C@@]23C[C@@H]1N1CCCC[C@@H]13` (stereo partly drawn) [Compound 95], the EC50 under setting [1] lay within 15 to 20 µM. Regarding `CSC1CC2=CC(=O)O[C@@]23C[C@@H]1N1CCCC[C@@H]13` (stereo partly drawn) [Compound 96], under setting [2], the EC50 lay in the range of 10 to 15 µM. For `O=C1C=C2CC(SC3CCCC3)[C@@H]3C[C@@]2(O1)[C@H]1CCCCN31` (stereo partly drawn) [Compound 97], the EC50 under setting [2] lay within 15 to 20 µM.

On to `O=C1C=C2CC(n3ccnc3)[C@@H]3C[C@@]2(O1)[C@H]1CCCCN31` (stereo partly drawn) [Compound 99], for which the EC50 under setting [1] lay within 15 to 20 µM.

Regarding `CC(C)NCCSC1CC2=CC(=O)O[C@@]23C[C@@H]1N1CCCC[C@@H]13` (stereo partly drawn) [Compound 100], the EC50 under setting [1] fell in the range of 15 to 20 µM. As to `O=C1C=C2C[C@H](SCC(F)(F)F)[C@@H]3C[C@@]2(O1)[C@H]1CCCCN31` [INVS-MG-5B], the EC50 under setting [3] was over 30 µM. The same measure, in the same setting: the figure for `COc1ccc(CN[C@@H]2CC3=CC(=O)O[C@@]34C[C@@H]2N2CCCC[C@@H]24)cc1` [INVS-MG-86C] is over 30 µM; for `CO[C@H]1CC2=CC(=O)O[C@@]23C[C@@H]1N1CCCC[C@@H]13` [INVS-MG-97-IIB] it is over 30 µM; for `C[N+]12CCCC[C@@H]1[C@]13C[C@H]2C=CC1=CC(=O)O3` (stereo partly drawn) [Sec-1] it is over 30 µM.
